Reference: ChEMBL document CHEMBL1148144, “Horiolide, a novel norditerpenoid from Indian ocean soft coral of the genus Sinularia” (J Nat Prod, 2002)
Activity calls are given as the source filed them.

Legend:
Format in all cases: functional, organism-based
Chlorella sorokiniana = assay: Antialgal activity against Chlorella sorokiniana
Staphylococcus aureus = assay: Antibacterial activity against Staphylococcus aureus
Chlorella salina = assay: Antialgal activity against Chlorella salina
Bacillus subtilis = assay: Antibacterial activity against Bacillus subtilis
Chlorella vulgaris = assay: Antialgal activity against Chlorella vulgaris
Rhizomucor miehei = assay: Antifungal activity against Mucor miehei
Escherichia coli = assay: Antibacterial activity against Escherichia coli

Measured: Activity

C=C(C)[C@@H]1CC(=O)[C@H]2[C@H](C1)[C@@H]1C(=O)O[C@H]3[C@@H]1CC(=O)[C@H]2[C@H]3C(C)=O
inactive: all assays above
